Laboratory results published in patent publication US11419806B2, “Prebiotic oral care methods using a saccharide” (Colgate-Palmolive Company, priority 2013, dated 2022).

Legend:
Assay in all cases: Twenty-four hour biofilm growth (crystal violet)
Format in all cases: cell-based
S. mutans = details: S mutans
Description: (§1) The increase in biofilm formation of the tested bacteria in response to selected saccharides (D-turanose, D-lactitol, myo-inositol, and N-acetyl-D-mannosamine) was investigated by setting up biofilm growth assays in a nutritionally rich medium (brain heart infusion broth (BHI), Oxoid), over 24 hours. Late exponential growth phase liquid cultures were prepared by transferring the respective bacterium from blood agar plates to BHI and overnight incubation at 37° C. in an anaerobic atmosphere for A. viscosus, V. parvula, P. gingivalis, P. intermedia, T. forsythia, A. naeslundii, and C. sputigena, and in a 5% CO2 environment for S. salivarius, S. sanguinis, S. mitis, A. actinomycetemcomitans, S. mutans, and S. gordonii. Overnight cultures were transferred to BHI and adjusted to a concentration of 1×10^7 CFU/ml by measuring the optical density at 600 nm (OD600) (BioRad SmartSpec 3000). For each strain, 200 μl of the bacterial suspension was added to a 96-well plate containing 20 μl of the respective saccharides. Final concentrations of the saccharides were set to 5, 10, 20 and 25 μmol/ml. […] Additionally, for each bacterium tested, a background control, to correct for background staining, was added. This background control contained the bacterium tested and 0.03 weight % chlorhexidine, as an antiseptic. Plates were incubated as previously described. After 24 hrs the supernatant was removed from the wells of the plates. The wells were washed twice with 1×100 μL PBS (phosphate buffered saline), fixed for 20 minutes with 96% vol. ethanol (96% vol. solution in water) and the biofilm retained at the bottom of the wells was stained with 1 weight % crystal violet (1 weight % solution in water). The bound dye was dissolved with 5% vol. acetic acid (5% vol. solution in water). Quantification of the stained biofilm was performed by measuring the absorbance at 630 nm using a Multiskan Ascent microplate reader (Thermo Scientific).
(§2) The experiment was carried out on three different days (thus providing 3 biological replicas) and each day the experiment was carried out in quadruple (thus providing 4 technical replicas) for each combination of bacterium with saccharide and for each control. For each day and for each combination, the average (mean) of the values obtained (as detailed above) for the four technical replicas was calculated to provide a single value for each combination on each day. The values shown in Tables 7a, 7b, 8a, 8b, below, are the average (mean) of the three single values obtained for each combination of bacterium with saccharide.

P. intermedia = tested on: P. intermedia
Description: as §1, §2

T. forsythia = tested on: T. forsythia
Description: as §1, §2

S. mitis = tested on: S. mitis
Description: as §1, §2

S. salivarius = tested on: S. salivarius
Description: as §1, §2

A. naeslundii = tested on: A. naeslundii
Description: as §1, §2

S. gordonii = tested on: S. gordonii
Description: as §1, §2

V. parvula = tested on: V. parvula
Description: as §1, §2

P. gingivalis = tested on: P. gingivalis
Description: as §1, §2

A. actinomycetemcomitans = tested on: A. actinomycetemcomitans
Description: as §1, §2

A. viscosus = tested on: A. viscosus
Description: as §1, §2

S. sanguinis = tested on: S. sanguinis
Description: as §1, §2

C. sputigena = tested on: C. sputigena
Description: as §1, §2

OC[C@H]1O[C@@](O)(CO)[C@@H](O[C@H]2O[C@H](CO)[C@@H](O)[C@H](O)[C@H]2O)[C@@H]1O [D-Turanose, α-D-glucopyranosyl-(1→3)-α-D-fructofuranose]
biofilm growth: OD 630 nm at 24 hrs divided by OD of control (control = 1) (S. mutans; 5 μmol/ml): 1.0356
biofilm growth: OD 630 nm at 24 hrs divided by OD of control (control = 1) (S. mutans; 10 μmol/ml): 1.1168
biofilm growth: OD 630 nm at 24 hrs divided by OD of control (control = 1) (S. mutans; 20 μmol/ml): 1.1403
biofilm growth: OD 630 nm at 24 hrs divided by OD of control (control = 1) (S. mutans; 25 μmol/ml): 1.1529
biofilm growth: OD 630 nm at 24 hrs divided by OD of control (control = 1) (P. intermedia; 5 μmol/ml): 2.0059
biofilm growth: OD 630 nm at 24 hrs divided by OD of control (control = 1) (P. intermedia; 10 μmol/ml): 1.8143
biofilm growth: OD 630 nm at 24 hrs divided by OD of control (control = 1) (P. intermedia; 20 μmol/ml): 1.5017
biofilm growth: OD 630 nm at 24 hrs divided by OD of control (control = 1) (P. intermedia; 25 μmol/ml): 1.1725
biofilm growth: OD 630 nm at 24 hrs divided by OD of control (control = 1) (T. forsythia; 5 μmol/ml): 0.8918
biofilm growth: OD 630 nm at 24 hrs divided by OD of control (control = 1) (T. forsythia; 10 μmol/ml): 0.9297
biofilm growth: OD 630 nm at 24 hrs divided by OD of control (control = 1) (T. forsythia; 20 μmol/ml): 0.7855
biofilm growth: OD 630 nm at 24 hrs divided by OD of control (control = 1) (T. forsythia; 25 μmol/ml): 0.8404
biofilm growth: OD 630 nm at 24 hrs divided by OD of control (control = 1) (S. mitis; 5 μmol/ml): 1.9433
biofilm growth: OD 630 nm at 24 hrs divided by OD of control (control = 1) (S. mitis; 10 μmol/ml): 1.5717
biofilm growth: OD 630 nm at 24 hrs divided by OD of control (control = 1) (S. mitis; 20 μmol/ml): 0.5236
biofilm growth: OD 630 nm at 24 hrs divided by OD of control (control = 1) (S. mitis; 25 μmol/ml): 0.3988
biofilm growth: OD 630 nm at 24 hrs divided by OD of control (control = 1) (S. salivarius; 5 μmol/ml): 0.9812
biofilm growth: OD 630 nm at 24 hrs divided by OD of control (control = 1) (S. salivarius; 10 μmol/ml): 0.9793
biofilm growth: OD 630 nm at 24 hrs divided by OD of control (control = 1) (S. salivarius; 20 μmol/ml): 0.8441
biofilm growth: OD 630 nm at 24 hrs divided by OD of control (control = 1) (S. salivarius; 25 μmol/ml): 0.8731
biofilm growth: OD 630 nm at 24 hrs divided by OD of control (control = 1) (A. naeslundii; 5 μmol/ml): 1.5849
biofilm growth: OD 630 nm at 24 hrs divided by OD of control (control = 1) (A. naeslundii; 10 μmol/ml): 1.4372
biofilm growth: OD 630 nm at 24 hrs divided by OD of control (control = 1) (A. naeslundii; 20 μmol/ml): 1.4348
biofilm growth: OD 630 nm at 24 hrs divided by OD of control (control = 1) (A. naeslundii; 25 μmol/ml): 1.4411
biofilm growth: OD 630 nm at 24 hrs divided by OD of control (control = 1) (S. gordonii; 5 μmol/ml): 1.0874
biofilm growth: OD 630 nm at 24 hrs divided by OD of control (control = 1) (S. gordonii; 10 μmol/ml): 1.1335
biofilm growth: OD 630 nm at 24 hrs divided by OD of control (control = 1) (S. gordonii; 20 μmol/ml): 1.1002
biofilm growth: OD 630 nm at 24 hrs divided by OD of control (control = 1) (S. gordonii; 25 μmol/ml): 1.2536
biofilm growth: OD 630 nm at 24 hrs divided by OD of control (control = 1) (V. parvula; 5 μmol/ml): 1.2298
biofilm growth: OD 630 nm at 24 hrs divided by OD of control (control = 1) (V. parvula; 10 μmol/ml): 1.3941
biofilm growth: OD 630 nm at 24 hrs divided by OD of control (control = 1) (V. parvula; 20 μmol/ml): 1.4942
biofilm growth: OD 630 nm at 24 hrs divided by OD of control (control = 1) (V. parvula; 25 μmol/ml): 1.3055
biofilm growth: OD 630 nm at 24 hrs divided by OD of control (control = 1) (P. gingivalis; 5 μmol/ml): 0.9121
biofilm growth: OD 630 nm at 24 hrs divided by OD of control (control = 1) (P. gingivalis; 10 μmol/ml): 0.8700
biofilm growth: OD 630 nm at 24 hrs divided by OD of control (control = 1) (P. gingivalis; 20 μmol/ml): 0.9602
biofilm growth: OD 630 nm at 24 hrs divided by OD of control (control = 1) (P. gingivalis; 25 μmol/ml): 0.9613
biofilm growth: OD 630 nm at 24 hrs divided by OD of control (control = 1) (A. actinomycetemcomitans; 5 μmol/ml): 0.9734
biofilm growth: OD 630 nm at 24 hrs divided by OD of control (control = 1) (A. actinomycetemcomitans; 10 μmol/ml): 0.9794
biofilm growth: OD 630 nm at 24 hrs divided by OD of control (control = 1) (A. actinomycetemcomitans; 20 μmol/ml): 1.0297
biofilm growth: OD 630 nm at 24 hrs divided by OD of control (control = 1) (A. actinomycetemcomitans; 25 μmol/ml): 0.9417
biofilm growth: OD 630 nm at 24 hrs divided by OD of control (control = 1) (A. viscosus; 5 μmol/ml): 0.1692
biofilm growth: OD 630 nm at 24 hrs divided by OD of control (control = 1) (A. viscosus; 10 μmol/ml): 0.0920
biofilm growth: OD 630 nm at 24 hrs divided by OD of control (control = 1) (A. viscosus; 20 μmol/ml): 0.0289
biofilm growth: OD 630 nm at 24 hrs divided by OD of control (control = 1) (A. viscosus; 25 μmol/ml): 0.0366
biofilm growth: OD 630 nm at 24 hrs divided by OD of control (control = 1) (S. sanguinis; 5 μmol/ml): 2.0761
biofilm growth: OD 630 nm at 24 hrs divided by OD of control (control = 1) (S. sanguinis; 10 μmol/ml): 2.7352
biofilm growth: OD 630 nm at 24 hrs divided by OD of control (control = 1) (S. sanguinis; 20 μmol/ml): 1.6356
biofilm growth: OD 630 nm at 24 hrs divided by OD of control (control = 1) (S. sanguinis; 25 μmol/ml): 1.9363
biofilm growth: OD 630 nm at 24 hrs divided by OD of control (control = 1) (C. sputigena; 5 μmol/ml): 0.9429
biofilm growth: OD 630 nm at 24 hrs divided by OD of control (control = 1) (C. sputigena; 10 μmol/ml): 0.9387
biofilm growth: OD 630 nm at 24 hrs divided by OD of control (control = 1) (C. sputigena; 20 μmol/ml): 0.9130
biofilm growth: OD 630 nm at 24 hrs divided by OD of control (control = 1) (C. sputigena; 25 μmol/ml): 0.9464
